From US8124778B2, “Tricyclic inhibitors of fatty acid amide hydrolase” (The Scripps Research Institute, priority 2007, dated 2012)
pKi: −log10 of the molar value.

tested on: not given; assay: not given; details: not given

| melting point [°C] | Compound |
| --- | --- |
| 91 to 92 | O=C(CCCCCCc1cccc(Cl)c1)c1ncc(-c2ccccn2)o1 [5hh, 1-Oxo-1-[5-(2-pyridyl)oxazol-2-yl]-7-(3-chlorophenyl)heptane] |
| 50 to 51 | O=C(CCCCC#Cc1cccc(Cl)c1)c1ncc(-c2ccccn2)o1 [4hh, 1-Oxo-1-[5-(2-pyridyl)oxazol-2-yl]-7-(3-chlorophenyl)hept-6-yne] |

target: T1, purified recombinant rat FAAH (Rattus norvegicus, UniProt P97612); assay: FAAH inhibition enzyme assay (14C-oleamide hydrolysis, Dixon plot); format: biochemical; details: rat FAAH
T1 construct: The truncated rat FAAH (rFAAH) was expressed in E. coli and purified as described; made in house; host or cells: E. coli
T1 sequence (P97612 30-579 limits assumed): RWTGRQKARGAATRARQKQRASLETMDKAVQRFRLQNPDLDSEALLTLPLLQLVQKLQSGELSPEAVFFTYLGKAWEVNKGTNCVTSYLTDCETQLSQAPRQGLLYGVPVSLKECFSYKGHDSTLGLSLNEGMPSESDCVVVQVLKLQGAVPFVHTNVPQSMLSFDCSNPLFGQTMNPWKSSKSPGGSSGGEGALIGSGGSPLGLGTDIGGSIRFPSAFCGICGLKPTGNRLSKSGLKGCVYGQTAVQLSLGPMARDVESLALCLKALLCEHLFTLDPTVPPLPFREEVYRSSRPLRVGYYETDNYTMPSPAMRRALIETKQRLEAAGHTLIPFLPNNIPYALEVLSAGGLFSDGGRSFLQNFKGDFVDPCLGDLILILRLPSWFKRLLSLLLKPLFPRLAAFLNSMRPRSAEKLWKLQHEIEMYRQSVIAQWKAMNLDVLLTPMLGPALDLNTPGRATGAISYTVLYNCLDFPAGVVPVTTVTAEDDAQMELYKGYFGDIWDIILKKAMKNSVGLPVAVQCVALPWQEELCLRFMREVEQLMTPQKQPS
Description: Enzyme assays were performed at 20-23° C. with purified recombinant rat FAAH expressed in E. coli (Patricelli, M. P.; Lashuel, H. A.; et al. Biochemistry 1998, 37, 15177-15187) (unless indicated otherwise) or with solubilized COS-7 membrane extracts from cells transiently transfected with human FAAH cDNA (Giang, D. K.; Cravatt, B. F. Proc. Natl. Acad. Sci. U.S.A. 1997, 94, 2238-2242) (where specifically indicated) in a buffer of 125 mM Tris/1 mM EDTA/0.2% glycerol/0.02% Triton X-100/0.4 mM Hepes, pH 9.0 buffer (Patricelli, M. P.; Patterson, J. P.; et al. Bioorg. Med. Chem. Lett. 1998, 8, 613-618). The initial rates of hydrolysis (≦10-20% reaction) were monitored using enzyme concentrations at least three times below the measured Ki by following the breakdown of ^14C-oleamide and Ki's (standard deviations are provided in Supporting Information tables) were established as described (Dixon plot) (Boger, D. L.; Sato, H.; et al. Proc. Natl. Acad. Sci. U.S.A. 2000, 97, 5044-5049). Lineweaver-Burk analysis previously established reversible, competitive inhibition (Boger, D. L.; Miyauchi, H.; et al. J. Med. Chem. 2005, 48, 1849-1856).
FAAH Inhibition. ^14C-labeled oleamide was prepared from ^14C-labeled oleic acid as described (Cravatt, B. F.; et al. Science 1995, 268, 1506-1509). The truncated rat FAAH (rFAAH) was expressed in E. coli and purified as described (Patricelli, M. P.; Lashuel, H. A.; et al. Biochemistry 1998, 37, 15177-15187). The purified recombinant rFAAH was used in the inhibition assays unless otherwise indicated. The full-length human FAAH (hFAAH) was expressed in COS-7 cells as described (Giang, D. K.; Cravatt, B. F. Proc. Natl. Acad. Sci. U.S.A. 1997, 94, 2238-2242), and the lysate of hFAAH-transfected COS-7 cells was used in the inhibition assays where explicitly indicated.
The inhibition assays were performed as described (Cravatt, B. F.; et al. Science 1995, 268, 1506-1509). In brief, the enzyme reaction was initiated by mixing 1 nM of rFAAH (800, 500, or 200 pM rFAAH for inhibitors with Ki≦1-2 nM) with 10 μM of ^14C-labeled oleamide in 500 μL of reaction buffer (125 mM TrisCl, 1 mM EDTA, 0.2% glycerol, 0.02% Triton X-100, 0.4 mM Hepes, pH 9.0) at room temperature in the presence of three different concentrations of inhibitor. The enzyme reaction was terminated by transferring 20 μL of the reaction mixture to 500 μL of 0.1 N HCl at three different time points. The ^14C-labeled oleamide (substrate) and oleic acid (product) were extracted with EtOAc and analyzed by TLC as detailed (Cravatt, B. F.; et al. Science 1995, 268, 1506-1509). The Ki of the inhibitor was calculated using a Dixon plot as described (standard deviations are provided in the Supporting Information tables) (Boger, D. L.; Sato, H.; et al. Proc. Natl. Acad. Sci. U.S.A. 2000, 97, 5044-5049). Lineweaver-Burk analysis was performed as described confirming competitive, reversible inhibition (Boger, D. L.; Miyauchi, H.; et al. J. Med. Chem. 2005, 48, 1849-1856).

| FAAH inhibitory potency (in words) | Compound |
| --- | --- |
| loss of activity | O=C(c1ncc(-c2ccccn2)o1)C1CC1 [14d, Cyclopropyl(5-(pyridin-2-yl)oxazol-2-yl)methanone] |
| significant potency | O=C(CCCCCSc1ccccc1)c1ncc(-c2ccccn2)o1 [12p, 6-(Phenylthio)-1-(5-(pyridin-2-yl)oxazol-2-yl)hexan-1-one] |
| substantial loss in inhibitory potency | CN(CCCCc1ccccc1)CC(O)c1ncc(-c2ccccn2)o1 (stereo not drawn) [14i, 2-(Methyl(4-phenylbutyl)amino)-1-(5-(pyridin-2-yl)oxazol-2-yl)ethanol] |
| significant potency | O=C(CSCCCCc1ccccc1)c1ncc(-c2ccccn2)o1 [12b, 2-(4-Phenylbutylthio)-1-(5-(pyridin-2-yl)oxazol-2-yl)ethanone] |
| substantial loss in inhibitory potency | OC(CCCCc1ccccc1)CC(O)c1ncc(-c2ccccn2)o1 (stereo not drawn) [14h, 7-Phenyl-1-(5-(pyridin-2-yl)oxazol-2-yl)heptane-1,3-diol] |
| loss of activity | O=C(c1ncc(-c2ccccn2)o1)C1CCCC1 [14e, Cyclopentyl(5-(pyridin-2-yl)oxazol-2-yl)methanone] |
| significant loss of inhibitory potency | O=C(CCCCc1ccccc1)CC(=O)c1ncc(-c2ccccn2)o1 [14g, 7-Phenyl-1-(5-(pyridin-2-yl)oxazol-2-yl)heptane-1,3-dione] |
| significant potency | CS(=O)(=O)c1cccc(CCCCCCC(=O)c2ncc(-c3ccccn3)o2)c1 [5ll, 1-Oxo-1-[5-(2-pyridyl)oxazol-2-yl]-7-(3-(methylsulfonyl)phenyl)heptane] |
| effective inhibitors | O=C(CCCCCCc1ccc2ccccc2c1)c1ncc(-c2ccccn2)o1 [5d, 1-Oxo-1-[5-(2-pyridyl)oxazol-2-yl]-7-(2-naphthyl)heptane] |
| lower potency | O=C(CCC(O)CCCc1ccccc1)c1ncc(-c2ccccn2)o1 (stereo not drawn) [13f, 4-Hydroxy-7-phenyl-1-(5-(pyridin-2-yl)oxazol-2-yl)heptan-1-one] |
| less effective | CCCCCCc1cccc(CCCCCCC(=O)c2ncc(-c3ccccn3)o2)c1 [5oo, 1-Oxo-1-[5-(2-pyridyl)oxazol-2-yl]-7-(3-hexylphenyl)heptane] |
| submicromolar inhibitor of FAAH | O=C(CCl)c1ncc(-c2ccccn2)o1 [14f, 2-Chloro-1-(5-(pyridin-2-yl)oxazol-2-yl)ethanone] |
| significant loss in potency | O=C(CS(=O)(=O)CCCCc1ccccc1)c1ncc(-c2ccccn2)o1 [12d, 2-(4-Phenylbutylsulfonyl)-1-(5-(pyridin-2-yl)oxazol-2-yl)ethanone] |
| significant potency | CCCCCCc1ccc(CCCCCCC(=O)c2ncc(-c3ccccn3)o2)cc1 [5nn, 1-Oxo-1-[5-(2-pyridyl)oxazol-2-yl]-7-(4-hexylphenyl)heptane] |
| effective inhibitors | O=C(CCCCCCc1cccs1)c1ncc(-c2ccccn2)o1 [5a, 1-Oxo-1-[5-(2-pyridyl)oxazol-2-yl]-7-(2-thienyl)heptane] |
| significant potency | O=C(CCCCSCc1ccccc1)c1ncc(-c2ccccn2)o1 [12k, 5-(Benzylthio)-1-(5-(pyridin-2-yl)oxazol-2-yl)pentan-1-one] |
| effective inhibitors | O=C(CCCCCCc1cccc2ccccc12)c1ncc(-c2ccccn2)o1 [5c, 1-Oxo-1-[5-(2-pyridyl)oxazol-2-yl]-7-(1-naphthyl)heptane] |
| effective inhibitors | O=C(CCCCCCc1ccsc1)c1ncc(-c2ccccn2)o1 [5b, 1-Oxo-1-[5-(2-pyridyl)oxazol-2-yl]-7-(3-thienyl)heptane] |
| lower ability to inhibit FAAH | O=C(CCC(=O)c1ncc(-c2ccccn2)o1)NCCc1ccccc1 [13a, 4-Oxo-N-phenethyl-4-(5-(pyridin-2-yl)oxazol-2-yl)butanamide] |

same assay, conditions: rat FAAH, o- and p-methylsulfone vs 5ll

| fold less effective than m-methylsulfone 5ll | Compound |
| --- | --- |
| approximately 10 fold | CS(=O)(=O)c1ccccc1CCCCCCC(=O)c1ncc(-c2ccccn2)o1 [5kk, 1-Oxo-1-[5-(2-pyridyl)oxazol-2-yl]-7-(2-(methylsulfonyl)phenyl)heptane] |
| approximately 10 fold | CS(=O)(=O)c1ccc(CCCCCCC(=O)c2ncc(-c3ccccn3)o2)cc1 [5mm, 1-Oxo-1-[5-(2-pyridyl)oxazol-2-yl]-7-(4-(methylsulfonyl)phenyl)heptane] |

same assay, conditions: recombinant rat FAAH, 14C-oleamide, pH 9.0, 20-23 °C

| pKi | Compound |
| --- | --- |
| 8.52 | O=C(CCCCCSc1ccccc1)c1ncc(-c2ccccn2)o1 [12p, 6-(Phenylthio)-1-(5-(pyridin-2-yl)oxazol-2-yl)hexan-1-one] |
| 8.10 | O=C(c1ncc(-c2ccccn2)o1)C(O)CCCCCc1ccccc1 (stereo not drawn) [13d, 2-Hydroxy-7-phenyl-1-(5-(pyridin-2-yl)oxazol-2-yl)heptan-1-one] |
| 9.05 | O=C(CCCCCCc1cccc(Cl)c1)c1ncc(-c2ccccn2)o1 [5hh, 1-Oxo-1-[5-(2-pyridyl)oxazol-2-yl]-7-(3-chlorophenyl)heptane] |
| 8.59 | O=C(CCCCCCc1cccc2ccccc12)c1ncc(-c2ccccn2)o1 [5c, 1-Oxo-1-[5-(2-pyridyl)oxazol-2-yl]-7-(1-naphthyl)heptane] |
